For four compounds, Ki and Kd results are on record in BindingDB's records for doi:10.1021/acs.biochem.7b00078 (The University of Queensland, 2017).

For experiment [1], the target named is T1, Na(+)/H(+) exchange regulatory cofactor NHE-RF1 [133-300] (Homo sapiens, UniProt O14745).
T1 construct: 133-300
T1 sequence (O14745 whole entry): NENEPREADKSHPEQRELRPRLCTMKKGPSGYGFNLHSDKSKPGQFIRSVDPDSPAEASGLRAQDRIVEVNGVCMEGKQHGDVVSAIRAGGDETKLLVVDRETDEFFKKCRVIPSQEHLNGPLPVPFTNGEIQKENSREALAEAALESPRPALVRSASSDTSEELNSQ
Briefly: Fluorescent Polarization Competition Assay. As to conditions: 23 °C. On the procedure:
(§1) Competition assays were performed in FP buffer (DTT was avoided for Cys-PTHRct-9) containing fixed concentrations of both the fluorescently labeled peptide andprotein following the protocol described by Madden and coworkers. [Cushing et al., Biochemistry, 47:10084-10098] This mixture was equilibrated for 20 min in the dark at room temperature. The unlabeled competitor peptide was dissolved and serially diluted in storage buffer supplemented with 5% DMSO (Sigma). Each serial dilution was aliquoted at 1/10 final volume, to which was added 9/10 volume of the protein/peptide mixture. All FP assays were performed in a 96-well format. Polarized fluorescence intensities were measured at 23 °C with a PerkinElmer Wallac Victor3 multilabel counter using excitation and emission wavelengths of 485 and 535 nm, respectively, for the FITC-labeled peptide.

Experiment [2] concerns the target T2, Na(+)/H(+) exchange regulatory cofactor NHE-RF1 [1-140] (Homo sapiens, UniProt O14745).
T2 construct: 1-140
T2 sequence (O14745 whole entry): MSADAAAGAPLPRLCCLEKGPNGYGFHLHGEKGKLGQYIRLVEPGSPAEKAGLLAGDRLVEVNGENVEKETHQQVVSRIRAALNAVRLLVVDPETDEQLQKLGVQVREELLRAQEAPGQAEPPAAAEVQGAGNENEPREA
The experiment in a line: Surface Plasmon Resonance (SPR). As to conditions: pH 7.4; 15 °C. On the procedure:
(§2) SPR measurements were performed with a Biacore X100 instrument (GE Healthcare Life Sciences, Piscataway, NJ) at 15.0 °C. The biotinylated PTHRct-22 ligand was immobilized on an SA streptavidin sensor chip (GE Healthcare Life Sciences) usingthe manufacturer's protocol until the desired response target was reached. PDZ1 or PDZ2 analyte, dissolved in 10 mM HEPES buffer (pH 7.4), 150 mM NaCl, 3 mM EDTA, and 0.005% surfactant polysorbate 20, was injected on the PTHRct-coated sensor surface at increasing concentrations from 10 nM to 100 μM. At the end of each ligand injection−dissociation cycle, the sensor chip was regenerated with 4.0 M MgCl2, 50 mM triethylamine (pH 9.15), and HBS-EP buffer.

Experiment [3] concerns the target T1, Na(+)/H(+) exchange regulatory cofactor NHE-RF1 [133-300]. The experiment in a line: Surface Plasmon Resonance (SPR). The note with it: pH 7.4; 15 °C. On the procedure: as §2
The target in experiment [4] is T2, Na(+)/H(+) exchange regulatory cofactor NHE-RF1 [1-140]. Briefly: Fluorescent Polarization Competition Assay. As to conditions: 23 °C. On the procedure:
as §1

For experiment [5] the target is unchanged. The experiment in a line: Isothermal Titration Calorimetry (ITC). As to conditions: pH 8; 25 °C. On the procedure: (§3) ITC measurements were conducted on a Microcal iTC200 (Malvern Instruments) in buffer consisting of 25 mM Tris (pH 8.0) and 100 mM NaCl. Proteins were exchanged into ITC buffer by gel filtration using a Superdex200 column. Wild-type modified synthetic peptides were purchased from Genscript and are described in Results. One millimolar PTHR peptides (wild-type and mutant variants) were titrated into 100 μM individual proteins, PDZ1 or PDZ2, at 25 °C.

Experiment [6] concerns the target T1, Na(+)/H(+) exchange regulatory cofactor NHE-RF1 [133-300]. The experiment in a line: Isothermal Titration Calorimetry (ITC). The note with it: pH 8; 25 °C. On the procedure:
as §3
(In ITC the heat of successive injections is recorded.)

Peptide text beside a SMILES is read from it. * marks the point of attachment. FITC = O=C1OC2(c3ccc(O)cc3Oc3cc(O)ccc32)c2ccc(NC(=S)*)cc21; Biotin = O=C1N[C@H]2[C@H](CS[C@H]2CCCCC(=O)*)N1

By Ki is commonly meant a dissociation constant, usually derived from enzyme kinetics or from competition with a known ligand. As usually defined, the Kd is the free concentration of one partner at which half of the binding sites on the other are occupied at equilibrium, for simple one-to-one binding. Take `CSCC[C@H](NC(=O)[C@@H](NC(=O)[C@@H](NC(=O)[C@H](CCC(=O)O)NC(=O)[C@H](Cc1c[nH]c2ccccc12)NC(=O)[C@H](CCC(=O)O)NC(=O)[C@H](CCC(=O)O)NC(=O)[C@H](CCC(N)=O)NC(=O)[C@H](CC(C)C)NC(=O)[C@H](CC(C)C)NC(=O)[C@H](C)NC(=O)[C@@H]1CCCN1C(=O)[C@@H]1CCCN1C(=O)[C@H](CCCNC(=N)N)NC(=O)[C@H](CCC(=O)O)NC(=O)[C@@H]1CCCN1C(=O)[C@H](CS)NC(=O)[C@H](CO)NC(=O)[C@H](C)NC(=O)[C@H](CCC(=O)O)NC(=O)[C@H](CCC(=O)O)NC(=O)[C@H](CC(=O)O)NC(=O)CCCC[C@@H]1SC[C@@H]2NC(=O)N[C@@H]21)[C@@H](C)O)C(C)C)C(=O)O` (Biotin-DEEASCPERPPALLQEEWETVM-OH): the Ki in experiment [1] (pH 7.4) was found to be 7 µM. In addition, the Kd in experiment [2] is 16 µM; in experiment [3] it was 11.5 µM.
Take `CSCC[C@H](NC(=O)[C@@H](NC(=O)[C@@H](NC(=O)[C@H](CCC(=O)O)NC(=O)[C@H](Cc1c[nH]c2ccccc12)NC(=O)[C@H](CCC(=O)O)NC(=O)[C@H](CCC(=O)O)NC(=O)[C@H](CCC(N)=O)NC(=O)[C@H](CC(C)C)NC(=S)Nc1ccc2c(c1)C(=O)OC21c2ccc(O)cc2Oc2cc(O)ccc21)[C@@H](C)O)C(C)C)C(=O)O` [FITC-LQEEWETVM] ({FITC}-LQEEWETVM-OH): the Kd in experiment [4] (pH 7) is 1 µM; in experiment [1] (pH 7), 0.6 µM.
Consider H-LQEEWETVM-OH [LQEEWETVM], for which the Ki in experiment [4] (pH 7.4) is 1.4 µM.
As to H-QEEWETVM-OH [QEEWETVM], the Kd amounted to 11.7 µM in experiment [5] and 9.7 µM in experiment [6].
